What was measured:
[1] = target: Triosephosphate isomerase (G233D HsTIM) (Homo sapiens, UniProt P60174, G233D); experiment: coupled enzyme assay, Kmapp vs PEP at varied GAP; assay type: biochemical
[2] = target: Triosephosphate isomerase (WT HsTIM) (Homo sapiens, UniProt P60174); experiment: coupled enzyme assay, Kmapp vs PEP at varied GAP; assay type: biochemical
Chain of Triosephosphate isomerase (WT HsTIM) (P60174 2-249): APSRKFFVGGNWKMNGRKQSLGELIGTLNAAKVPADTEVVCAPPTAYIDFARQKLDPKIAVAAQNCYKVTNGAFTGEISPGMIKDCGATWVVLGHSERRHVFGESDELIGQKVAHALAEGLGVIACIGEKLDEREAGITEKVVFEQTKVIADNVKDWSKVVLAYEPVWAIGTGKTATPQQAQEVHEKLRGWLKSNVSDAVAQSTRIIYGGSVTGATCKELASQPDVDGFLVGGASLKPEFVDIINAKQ

Chain of Triosephosphate isomerase (G233D HsTIM) (P60174 2-249 G233D): as the sequence (P60174 2-249) above, with G232D counted along it

- Ki [1]: 120 ± 5.2 µM
- Ki [2]: 123 ± 5 µM
Compound: C=C(OP(=O)(O)O)C(=O)O [phosphoenolpyruvate]

From paper PMC5652080 (Current Enzyme Inhibition, 2015)
